Experimental findings from article PMC5063506, “A Novel Class of Small Molecule Agonists with Preference for Human over Mouse TLR4 Activation” (PLoS ONE, 2016) are described below.

≈ marks a conversion by molar mass, not a printed value. Some results are limits rather than exact numbers.

By solubility is commonly meant how much of the substance goes into solution per volume. A lower solubility goes with little dissolved substance.

One data set deals with wild-type C57BL/6 mice. Kind of data set: In vivo serum cytokines in wild-type C57BL/6 mice. The arrangement: species or system mouse. The note with it: 50 μg IP, serum at 2 h (IL-12 p40, IL-6) and 6 h (IL-12 p40, MIG, RANTES). The text has this:
The humanized TLR4/MD-2 mice, described in detail in [15], express human TLR4 and human MD-2 from bacterial artificial chromosome transgenes that were bred to the mouse TLR4/MD-2 double-knockout (DKO) on a C57BL/6J background. Because the hMD-2 BAC transgene is integrated on the Y-chromosome, only male mice were used in the study. Generally, hMD-2 BAC+ males are bred to hTLR4 BAC+ females (both on DKO background) and male pups were screened for the presence of hTLR4 BAC. Double positives served as the fully humanized TLR4/MD-2 mice and hTLR4 BAC negative mice served as functional KO. Wild-type C57BL/6 mice were bred in parallel. All breeding was performed in an SPF facility at the University of Washington and all protocols were approved by the University of Washington IACUC. For in vivo cytokines, mice were injected intraperitoneally with 50 μg of either AZ618 or MPL in 0.2 ml PBS. Mice were bled from the retroorbital sinus 2 h after injection and terminal cardiocentesis was performed at 6 h for the second blood sample. Serum samples were analyzed via MILLIPLEX kits (EMD Millipore).
C57BL/6 mice (6–12 per group) were immunized IP with 50 μg MPL or AZ618 and then were bled at 2 h via retro-orbital route and at 6 h via cardiac puncture. Serum was analyzed by multiplex Millipore kits for cytokine content. […]

A further data set relates to mouse splenocytes. Kind of data set: Cytokine induction in mouse splenocytes (mouse MILLIPLEX). The class given is cell-based, BALB/c mouse. Conditions: 1 and 0.2 μg/ml, 24 h. As to the method: Splenocytes were isolated from naïve BALB/c mice by dissociating spleens with a GentleMACS (Miltenyi) instrument, then filtration through […] screens. For other species, blood was obtained through venipuncture or cardiac puncture into heparinized tubes, then diluted 1:1 with PBS or HBSS and layered onto Ficoll-Histopaque (GE Healthcare) for blood from healthy human volunteers and cynomolgus macaques, Lympholyte-Mammal (Cedarlane Labs) for New Zealand white rabbits, Sprague-Dawley rats, Hartley guinea pigs, cotton rats, and ferrets, followed by standard density centrifugation techniques. […]
PBMCs (human, cynomolgus macaque, guinea pig, ferret, rabbit, rat, and cotton rat) or splenocytes (mouse) were seeded onto 96-well flat bottom plates at 5 x 10^5 cells/well and stimulated with TLR4 agonists at 1 and 0.2 μg/ml for 24 h at 37°C. […] For human, cyno, mouse, and rat, cell-free SNs were analyzed via human, NHP, mouse, and rat MILLIPLEX kits. For GP, ferret, rabbit, and CR, cells were lysed by Millipore lysing buffer and snap frozen at -70 C until ready for analysis by Affymetrix QuantiGene 2.0 Plex kits. […] Signal was detected using a Bioplex 200 instrument (BioRad). […]
Fig 6 The Ugi compound-induced cytokine profile is similar to MPL and LPS in human PBMCs but not mouse splenocytes. […] SNs were analyzed via human and mouse MILLIPLEX kits. […]

Data set [1] can be described thus: Intrinsic clearance in presence of human microsomes. It is filed as in vitro ADME. The note with it: read-out: Clint hm (intrinsic clearance, human microsomes). The text has this:
(§1) Fig 2 Optimization stages of Ugi products as TLR4 agonists. *Human TLR-4 NFκB SEAP reporter assays; protocol as described in Methods. Data are reported as pEC50, or negative log of the EC50 values. **Clint rh / hm represents intrinsic clearance in presence of rat hepatocytes (μL/min/10^6 cells) and human microsomes (μL/min/mg protein). […] Thus a drug molecule with LogD >4 might be considered to be very lipophilic and therefore more likely to suffer from rapid metabolic turnover, poor solubility and receptor promiscuity; whereas a LogD range of 1–3 is more likely to be associated with optimal physicochemical and drug-like properties. ^††Solubility was measured by dissolution of solid samples in buffer at pH 7.4.

For a further data set, the system named is cytochrome P450 enzymes. Kind of data set: Inhibition of cytochrome P450 enzymes (unpublished data). The class given is in vitro ADME. Conditions: compared with earlier-stage, more lipophilic Ugi compounds.
Data set [2] can be described thus: Intrinsic clearance in presence of rat hepatocytes. Conditions: read-out: Clint rh (intrinsic clearance, rat hepatocytes). It is filed as in vitro ADME.
Description: as §1

Data set [3] can be described thus: Solubility by dissolution of solid samples in buffer. It is filed as physicochemical. Conditions: aqueous buffer, thermodynamic from solid; solid samples in buffer at pH 7.4.
Description: as §1

As to `Cc1cc(C)cc(N(C(=O)c2cc(-c3ccccc3)n(-c3ccccc3)n2)C(C(=O)NC2CCCC2)c2ccc(CC(=O)O)cc2)c1` (stereo not drawn) [AZ618, 2-(4-(2-(cyclopentylamino)-1-(N-(3,5-dimethylphenyl)-1,5-diphenyl-1H-pyrazole-3-carboxamido)-2-oxoethyl)phenyl)acetic acid], in the data set with wild-type C57BL/6 mice, the “serum cytokine induction in wild-type C57BL/6 mice” value was “not AZ618 induced”.
Turning to `CC(C)(C)c1ccc(N(C(=O)c2cc(-c3ccccc3)n(-c3ccccc3)n2)C(C(=O)NC2CCCC2)c2ccc(CC(=O)O)cc2)cc1` (stereo not drawn) [AZ902], the “reactivity of mouse splenocytes (cytokine secretion)” value in the data set with mouse splenocytes is recorded as “marginal activation”.
Regarding `O=C(O)Cc1ccc(C(C(=O)NC2CCCC2)N(C(=O)c2cc(-c3ccccc3)n(-c3ccccc3)n2)c2ccc3c(c2)CCC3)cc1` (stereo not drawn) [AZ617], the microsomal CLint in data set [1] is less than 3 µL/min/mg. For the same compound, in the data set on cytochrome P450 enzymes, the “inhibition of one or more cytochrome P450 enzymes” value is “abolished”. Moreover, in data set [2], the hepatocyte CLint is less than 5 µL/min/1e6 cells. Besides, the solubility in data set [3] came out at 129 µM (≈ 82.4 µg/mL).
